Measured values reported in US20230092232A1, “COMPOUNDS THAT MODULATE ANTI-TUMOR IMMUNITY AND METHODS OF DOING THE SAME” (University of Florida Research Foundation, Incorporated, priority 2020, published 2023).
“Also recorded” adds a separate entry of the source.

Assays:
[1] = tested on: PBMCs from an HLA-A2 expressing individual (UF 86); test: Ex vivo T cell stimulation assay, flow cytometry, HLA-A2 expressing PBMCs; assay type: cell-based, human; conditions: for autologous mixed lymphocyte reaction: HLA-A2 expressing cells, FIG. 5
Description: Third, top scoring compounds were tested for their ability to modulate proliferation of peripheral blood mononuclear cells (PBMCs) from healthy individuals using ex vivo T cell stimulation assays. Here, the drugs predicted to bind HLA-A2 (FIGS. 4A-4I) were tested using PBMCs from HLA-typed normal individuals. In assays, drugs were incubated with PBMCs (for up to 14 days), and functional characteristics of the responding T cell population were assayed utilizing flow cytometry (e.g., using antibodies specific for CD3 and CD8). PBMCs were stimulated with drugs at […] per ml with interleukin-2 (IL-2) supplemented on day 2. […] PBMCs from an HLA-A2 expressing individual (“UF 86” is homozygous for HLA-A*02:01) were incubated with a panel of drugs predicted to bind HLA-A2 by molecular docking. PBMCs from an individual lacking HLA-A2 (“UF 85”) served as a control for HLA allele specificity. Cells were stained with antibodies specific for CD3, CD8 (cytotoxic T lymphocyte markers), CD69, and CD107a (LAMP-1) (activation markers) to identify those drugs from the top scoring grouping that modify cytotoxic T lymphocyte activity.

[2] = tested on: HLA alleles; conditions: cited from earlier work
[3] = tested on: IMEA cells; test: In vitro killing of IMEA HCC cells, with or without BALB/c splenocytes; assay type: cell-based, mouse; parameters: IMEA cell killing: unit of the concentration uncertain; conditions: for enhanced killing of IMEA HCC: in vitro screening with T cells
Description: Prior to validation in human systems, a mouse system targeting hepatocellular carcinoma (HCC), the most common form of liver cancer, was used. IMEA is a murine HCC line of the H2^d haplotype, expressing the H2-D^d, H2-K^d, and H2-L^d allelic variants.
(§1) In a first set of experiments, drugs (e.g., small molecules) that bind IMEA MHC were selected from a database compiled using the in silico modeling and scoring methodology disclosed herein, and were tested for T cell stimulation and HCC killing in vitro. The crystal structure of H2-D^d was used as the basis for in silico selection of FDA-approved drugs predicted to bind the antigen binding cleft. DOCK6, a structure-based design program for early drug discovery (available for download at http://dock.compbio.ucsf.edu/) was used to screen 1,207 FDA approved small molecule drugs by parallel processing at the University of Florida High Performance Computing Center. An initial 1,207 FDA approved compounds were selected based upon their predicted ability to bind the HLA-A2 supertype, and thus their predicted efficacy across a wide swath of individuals. The top 40 scoring compounds were obtained from the National Cancer Institute Developmental Therapeutics Program.
IMEA cells were seeded in 24-well plates. At 30% confluence of IMEA cells, 0.5×10^6 of BALB/c mouse splenocytes were added to half of the wells. The compounds under evaluation were incubated with IMEA cells in concentrations […] and 1 mM, and supernatant was subsequently collected.

[4] = cited from earlier work
[5] = molecular target: HLA-B*57:01 (Homo sapiens, UniProt P01889, D201E/D98Y/E176V/E187L/E204Q/E69M/E70A/G107R/I90N/K202T/L105A/L119I/N104I/N87E/Q89R/Q94S/R106L/R155S/R180L/R86G/S101N/S121V/S35A/S48A/T118I/V36M/Y140S/Y91M); conditions: cited from earlier work
[6] = tested on: peripheral blood mononuclear cells from hypersensitive HLA-B*57.01+ patients; conditions: cultured with abacavir in vitro; cited from earlier work
[7] = tested on: H2-D^d T cells; test: In vitro T cell stimulation in the mouse HCC system; assay type: cell-based
Description: as §1
IMEA cells were seeded in 24-well plates. At 30% confluence of IMEA cells, 0.5×10^6 of BALB/c mouse splenocytes were added to half of the wells. The compounds under evaluation were incubated with IMEA cells in concentrations of 10 mM and 1 mM, and supernatant was subsequently collected.

O=C(O)c1ccc(I)cc1O [drug 10]
autologous mixed lymphocyte reaction [1]: inhibit

CN1CCN(C2=Nc3cc(Cl)ccc3Nc3ccccc32)CC1 [Clozapine]
HLA allele association(s) with adverse drug reaction [2]: B38, DR4, DR2

CCOC(=O)CN[C@@H](C(=O)N1CC[C@H]1C(=O)NCc1ccc(/C(N)=N\O)cc1)C1CCCCC1 [Ximelagatran]
HLA allele association(s) with adverse drug reaction [2]: DRB1*07, DQA1*02; also recorded: DQB1*07:01

NC(=O)c1ncn([C@@H]2O[C@H](CO)[C@@H](O)[C@H]2O)n1 [compound 163039]
IMEA cell killing ([3]; 10 (unit uncertain)): killed

Nc1nc(NC2CC2)c2ncn([C@H]3C=C[C@@H](CO)C3)c2n1 [Abacavir]
risk of a hypersensitivity reaction ([4]; HLA-B*57:01 patient): ~50% | overall incidence rate of hypersensitivity ([4]; no genetic prescreening, HLA-B*57:01+ and HLA-B*57:01- individuals): ~6% | CD8+ T cell activity ([5]; by binding HLA-B*57:01): enhances | polyclonal T cell responses ([5]; drug naïve individuals that carry the HLA-B*57:01 allele): stimulates | immune response of PBMCs (interferon-γ, tumor necrosis factor-α, other inflammatory cytokines) [6]: detectable immune response

O=CC(Br)=C(Br)C(=O)O [drug 11, 2,3-dibromo-4-oxobut-2-enoic acid]
number of activated CD8+ cells ([1]; day 4, FIG. 5): enhances

N[C@@H](Cc1ccc(N(CCCl)CCCl)cc1)C(=O)O [melphalan]
stimulation of H2-D^d T cells [7]: stimulated | enhanced killing of IMEA HCC [3]: enhanced killing

O=C(O)CNC(=O)C(Cl)Cl [drug 3]
autologous mixed lymphocyte reaction [1]: inhibit

CC(C)(S)[C@@H](N)C(=O)O [d-penicillamine]
HLA allele association(s) with adverse drug reaction [2]: B8, DR3, DR1

N[C@@H](Cc1ccc(N(CCCl)CCCl)cc1)C(=O)O [compound 241286]
IMEA cell killing ([3]; 10 (unit uncertain)): killed

Cl.Nc1ccn([C@@H]2O[C@H](CO)[C@@H](O)[C@@H]2O)c(=O)n1 [compound 63878]
IMEA cell killing ([3]; 1 (unit uncertain)): killed | IMEA cell killing ([3]; 10 (unit uncertain)): killed

NNc1nncc2ccccc12 [Hydralazine]
HLA allele association(s) with adverse drug reaction [2]: DR4

CC(=O)Oc1ccccc1C(=O)O [Aspirin]
HLA allele association(s) with adverse drug reaction [2]: DPB1*03:01; also recorded: DRB1*13:02-DQB1*06:09

Cc1cc(NS(=O)(=O)c2ccc(N)cc2)no1 [Sulfamethoxazole]
HLA allele association(s) with adverse drug reaction [2]: A30; B13; Cw6

Nc1ncn([C@@H]2O[C@H](CO)[C@@H](O)[C@H]2O)c(=O)n1 [compound 102816]
IMEA cell killing ([3]; 10 (unit uncertain)): killed

CC1(C)S[C@@H]2[C@H](NC(=O)[C@H](N)c3ccccc3)C(=O)N2[C@H]1C(=O)O [Aminopenicillins]
HLA allele association(s) with adverse drug reaction [2]: A2, DRw52

Nc1ncn([C@@H]2O[C@H](CO)[C@@H](O)[C@H]2O)c(=O)n1 [vidaza]
stimulation of H2-D^d T cells [7]: stimulated | enhanced killing of IMEA HCC [3]: enhanced killing

Asparaginase
HLA allele association(s) with adverse drug reaction [2]: DRB1*07:01

NC(=O)c1ncn([C@@H]2O[C@H](CO)[C@@H](O)[C@H]2O)n1 [ribavirin]
stimulation of H2-D^d T cells [7]: stimulated | enhanced killing of IMEA HCC [3]: enhanced killing
